Several values for one entry are separate records, joined by “and”; a condition that tells them apart may be missing. Equal entries are not always repeated. Entries after “also recorded” stand apart in the source; their conditions may differ. Where two headings read alike, the source gives them in different places.
What was measured:
[1] = system: brain-derived Aβ; test: Effect of added metals on solubility of brain-derived Aβ; format: biochemical, human; details: 2 mM in PBS
Protocol: Aβ in the high speed supernatant was visualized as described above.
The homogenates were spun at 100,000× g for 30 min and the supernatant discarded. […] Aβ in the soluble fraction was visualized as described above.

[2] = system: Alzheimer's disease; details: clinical administration; cited from earlier work
[3] = Metal reduction assay, Fe^3+ to Fe^2+; format: biochemical; details: 10 μM Fe^3+, PBS pH 7.4, 1 hr 37° C.
Protocol: (§1) The metal reduction assay was performed using a 96-well microtiter plate (Costar) based upon a modification of established protocols (Landers, J. W., et al., Amer. Clin. Path. 29:590 (1958); Landers, J. W., et al., Clinica Chimica Acta 3:329 (1958)). Polypeptides (10 μM) or Vitamin C (100 μM), metal ions (10 μM, Fe(NO3)3 or Cu(NO3)2), and reduced metal ion indicators, bathophenanthrolinedisulfonic acid (BP, for Fe^2+, Sigma, 200 μM) or bathocuproinedisulfonic acid (BC, for Cu^+, Sigma, 200 μM), were coincubated in phosphate buffered saline (PBS), pH 7.4, for 1 hr at 37° C. The metal ion solutions were prepared by direct dilution in the buffer from their aqueous stocks purchased from National Institute of Standards and Technology (NIST). Absorbances were then measured at 536 mn (Fe^2+-BP complex) and 483 nm (Cu^+-BC complex), respectively, using a 96-well plate reader (SPECTRAmax 250, Molecular Devices, CA). In control samples, both metal ion and indicator were present to determine the background buffer signal. As a further control, both metal ion and peptide were present in the absence of indicator to estimate the contribution of light scattering due to turbidity to the absorbance reading at these wavelengths. The net absorbances (ΔA) at 536 nm or 483 nm were obtained by deducting the absorbances from these controls from the absorbances generated by the peptide and metal in the presence of the respective indicator.
The concentrations of reduced metal ions (Fe^2+ or Cu^+) were quantified based on the formula: Fe^2+ or Cu^+ (˜M)=A*10^6/(L*M), where L is the measured equivalent vertical pathlength for a well of 300 μL volume as described in the instrument's specifications manual (0.856 cm for Fe^2+; 1.049 cm for Cu^+); M is the known molecular absorbance (M^−1 cm^−1) which is 7124 (for Fe^2+-BP complex) or 2762 (for Cu^+-BC complex).

[4] = H2O2 assay, production by Aβ peptides; format: biochemical; details: 1 μM Fe^3+, ambient O2, PBS pH 7.4, 1 hour 37° C.
Protocol: Polypeptides (10 μM) or Vitamin C (10 μM), Fe^3+ or Cu^2+ (1 μM) and a H2O2 trapping agent-Tris(2-Carboxyethyl)Phosphine Hydrochloride (TCEP, Pierce, 50 μM)-were co-incubated in PBS buffer (300 μL), pH 7.4, for 1 hour at 37° C. Under identical conditions, catalase (Sigma, 100 U/mL) was substituted for the polypeptides, to serve as a control signal representing 0 μM H2O2. Following incubation, the unreacted TCEP was detected by 5,5-Dithio-bis(2-Nitrobenzoic acid) (DTNB, Sigma, 50 KLM) which generates 2 moles of the coloured product.

[5] = Cu^2+-induced SDS-resistant polymerization of Aβ peptides, western blot image analysis; format: biochemical, human
Protocol: Following incubation (37° C.), aliquots of each reaction (2 ng peptide) were collected at 0 d, 1 d, 3 d and 5 d and western blotted using anti-Aβ monoclonal antibody 8E10 (FIG. 9). Migration of the molecular size markers are indicated (kDa). […] It should be noted that other means of visualizing and/or determining the presence or absence of polymerization other than western blot analysis may be used. Such other means include but are not limited to density sedimentation by centrifugation of the samples.
The generation of SDS-resistant Aβ polymers by metal ions was tested by incubating Cu^2+ (30 μM) or Zn^2+ (30 μM) at pH 6.6, 7.4 and 9.0 with Aβ1-40.
(0-30 μM) at pH 7.4 and 6.6 and the samples analyzed by Western blot and the signal quantitated using the Fluoro-S Image Analysis System (Bio-Rad, Hercules, Calif.) as previously described.

[6] = biological target: T1, Aβ1-42 (Homo sapiens, UniProt P05067); test: Effect of chelators on metal reduction by Aβ1-42; format: biochemical; details: chelator 200 μM, Fe^3+ 10 μM, ambient oxygenation
T1 sequence (P05067 672-713 limits assumed): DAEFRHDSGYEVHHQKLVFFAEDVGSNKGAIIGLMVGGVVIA

[7] = biological target: T1, Aβ1-42; test: Effect of metal chelators on H2O2 production from Aβ1-42; format: biochemical; details: 1 μM Fe^3+; chelator 200 μM
[8] = in vivo, cited from earlier work
[9] = Metal reduction assay, Cu^2+ to Cu^+; format: biochemical; details: 10 μM Cu^2+, PBS pH 7.4, 1 hr 37° C.
Protocol: Aβ (10 μM in PBS, pH 7.4 or 6.8, as shown) was incubated for 30 minutes (37° C.) in the presence of Cu^2+10 μM ±Zn^2+ 10 μM). […] levels (n=3, ±SD) were assayed against a standard curve.
as §1, with “Polypeptides” for “The metal reduction assay was performed using a 96-well microtiter plate (Costar) based upon a modification of established protocols (Landers, J. W., et al., Amer. Clin. Path. 29:590 (1958); Landers, J. W., et al., Clinica Chimica Acta 3:329 (1958)). Polypeptides”, “Absorbances were then measured at 536 mn (Fe^2+-BP complex) and 483 nm (Cu^+-BC complex), respectively, using a 96-well plate reader (SPECTRAmax 250, Molecular Devices, CA).” left out

[10] = TBARS assay of OH.; format: biochemical; details: 10 μM peptide, 1 μM Fe^3+ or Cu^2+
Protocol: All data points are means ±SD, n=3.
The Thiobarbituric Acid-Reactive Substance (TBARS) assay for incubation mixtures with Fe^3+ or Cu^2+ was performed in a 96-well microtiter format modified from established protocols (Gutteridge et al. Biochim. Biophys. Acta 759: 38-41 (1983)). Aβ peptide species (10 μM) or Vitamin C (100 μM), were incubated with Fe^3+ or Cu^2+ (1 μM) and deoxyribose (7.5 mM, Sigma) in PBS, pH 7.4. Following incubation (37° C., 1 hour), glacial (17 M) acetic acid and 2-thiobarburic acid (1%, w/v in 0.05 M NaOH, Sigma) were added and heated (100° C., 10 min). The final mixtures were placed on ice for 1-3 minutes before absorbances at 532 nm were measured. The net absorbance change for each sample were obtained by deducting the absorbance from a control sample consisting of identical chemical components except for the Vitamin C or Aβ peptides.

[11] = system: Aβ deposits of AD-affected brain; test: Extraction (solubilization) of Aβ from post-mortem AD brain tissue homogenates, western blot densitometry; format: biochemical, human
[12] = biological target: T2, Aβ1-40 aggregates (Homo sapiens, UniProt P05067); test: Resolubilization of in vitro metal- or pH-induced Aβ aggregates on filter; format: biochemical; details: chelator 2 μM in TBS
T2 construct: formed in vitro by the action of Cu^2+ or Zn^2+ upon Aβ1-40 was examined; purchased W. M. Keck Foundation Biotechnology Resource Laboratory (Yale University); host or cells: chemical synthesis
T2 sequence (P05067 672-711 limits assumed): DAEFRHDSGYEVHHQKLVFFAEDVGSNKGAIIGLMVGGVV
Protocol: Aggregates were transferred to a 0.2 μ nylon membrane by filtration. […] The membrane was fixed, probed with the anti-Aβ monoclonal antibody 6E10, and developed for exposure to ECL-film. […] Values are expressed as a percentage of Aβ signal after washing with TBS alone.
Aβ (10 ng/well in buffered saline) aggregation was induced by addition of metals (5 μM) or acidic conditions (pH 5.5). Aggregates were transferred to a 0.2 μ nylon membrane by filtration. […] The membrane was then fixed, probed with anti-Aβ monoclonal antibody 6E10 and developed for exposure to ECL-film. […] Values are expressed as a % of Aβ signal remaining on the filter after washing with TBS alone.

[13] = Clioquinol in humans: expected plasma levels and side effect; format: in vivo
[14] = Dissolving clioquinol: n-decane / PBS partition; format: physicochemical
Protocol: Next, the phases were allowed to separate. The lower phase (PBS) was collected and filtered to remove the residue which had formed at the phase interface upon extraction with the organic solvent. The concentration of clioquinol in the PBS was determined to be 800 nanomolar. This number was arrived at based on two assumptions: […]

[15] = oral dose of 200 mg/kg, rats; cited from earlier work
[16] = oral dose of 200 mg/kg, dogs; cited from earlier work
[17] = oral dose of 500 mg/kg, monkeys; cited from earlier work
[18] = sustained treatment, dose as low as 10 mg/kg/day; cited from earlier work
[19] = cited from earlier work
[20] = cited from earlier work; remark: listed apart in the source
[21] = with PBS at 1:1 mixture; assumption; cited from earlier work

Which “resolubilization of Aβ in tissue depleted of metals by EGTA” value [1] does the source give for `[Mg]` [magnesium] here?
Its value is “led to resolubilization of the precipitated Aβ”.

Which “effect on progression of AD” value [2] does the source give for vitamin E here?
Its value is “delay the progression of clinical AD”.

Which results are given for “Aβ1-42: synthetic human Aβ peptide, residues 1-42”?
reduction of available Fe^3+ [3]: 50%; H2O2 generated [4]: 10 µM; SDS-resistant polymers: Monomer ([5]; pH 6.6, [Cu^2+] 0): 61.0; SDS-resistant polymers: Pentamer ([5]; pH 6.6, [Cu^2+] 0): 3.8; SDS-resistant polymers: Tetramer ([5]; pH 6.6, [Cu^2+] 0): 8.6; SDS-resistant polymers: Trimer ([5]; pH 6.6, [Cu^2+] 0): 27.3; SDS-resistant polymers: Monomer ([5]; pH 6.6, [Cu^2+] 0.5): 52.1; SDS-resistant polymers: Tetramer ([5]; pH 6.6, [Cu^2+] 0.5): 12.0; SDS-resistant polymers: Trimer ([5]; pH 6.6, [Cu^2+] 0.5): 33.8; SDS-resistant polymers: Monomer ([5]; pH 6.6, [Cu^2+] 5): 59.6; SDS-resistant polymers: Tetramer ([5]; pH 6.6, [Cu^2+] 5): 7.1; SDS-resistant polymers: Monomer ([5]; pH 6.6, [Cu^2+] 10): 52.3; SDS-resistant polymers: Pentamer ([5]; pH 6.6, [Cu^2+] 10): 2.2; SDS-resistant polymers: Tetramer ([5]; pH 6.6, [Cu^2+] 10): 13.6; SDS-resistant polymers: Monomer ([5]; pH 7.4, [Cu^2+] 0): 76.61; SDS-resistant polymers: Pentamer ([5]; pH 7.4, [Cu^2+] 0): 1.9; SDS-resistant polymers: Tetramer ([5]; pH 7.4, [Cu^2+] 0): 5.5; SDS-resistant polymers: Trimer ([5]; pH 7.4, [Cu^2+] 0): 16.0; SDS-resistant polymers: Monomer ([5]; pH 7.4, [Cu^2+] 0.5): 70.7; SDS-resistant polymers: Pentamer ([5]; pH 7.4, [Cu^2+] 0.5): 2.5; SDS-resistant polymers: Tetramer ([5]; pH 7.4, [Cu^2+] 0.5): 6.2; SDS-resistant polymers: Trimer ([5]; pH 7.4, [Cu^2+] 0.5): 20.5; SDS-resistant polymers: Monomer ([5]; pH 7.4, [Cu^2+] 1): 64.9; SDS-resistant polymers: Pentamer ([5]; pH 7.4, [Cu^2+] 1): 4.0; SDS-resistant polymers: Tetramer ([5]; pH 7.4, [Cu^2+] 1): 7.4; SDS-resistant polymers: Trimer ([5]; pH 7.4, [Cu^2+] 1): 23.6; SDS-resistant polymers: Monomer ([5]; pH 7.4, [Cu^2+] 5): 56.1; SDS-resistant polymers: Pentamer ([5]; pH 7.4, [Cu^2+] 5): 4.1; SDS-resistant polymers: Tetramer ([5]; pH 7.4, [Cu^2+] 5): 8.7; SDS-resistant polymers: Monomer ([5]; pH 7.4, [Cu^2+] 10): 55.1; SDS-resistant polymers: Pentamer ([5]; pH 7.4, [Cu^2+] 10): 4.3; SDS-resistant polymers: Tetramer ([5]; pH 7.4, [Cu^2+] 10): 10.3; SDS-resistant polymers: Monomer ([5]; pH 7.4, [Cu^2+] 30): 57.1; SDS-resistant polymers: Pentamer ([5]; pH 7.4, [Cu^2+] 30): 4.2; SDS-resistant polymers: Tetramer ([5]; pH 7.4, [Cu^2+] 30): 8.3

Which results are given for `CC(=O)N(O)CCCCCNC(=O)CCC(=O)N(O)CCCCCNC(=O)CCC(=O)N(O)CCCCCN` [DFO]?
effect on production of Fe^2+ by Aβ1-42 [6]: nearly halved; effect on H2O2 formation by Aβ1-42 [7]: had no effect on H2O2 formation; brain / blood-brain barrier penetration [8]: does not easily penetrate the blood-brain barrier; effect on progression of AD [2]: effective in preventing the progression of AD

Which results are given for “rat Aβ1-40: rat Aβ with substitutions R5→G, Y10→F, H13→R compared to human Aβ (DAEFGHDSGFEVRHQKLVFFAEDVGSNKGAIIGLMVGGVV; Amyloid-beta protein 40; UniProt P08592 672-711, looked up)”?
reduction of available Cu^2+ [9]: reduced no Cu^2+; reduction of available Fe^3+ [3]: did not significantly facilitate the reduction of Fe^3+; OH. generation (TBARS) [10]: did not generate OH

For `Oc1c(I)cc(Cl)c2cccnc12` [clioquinol, 5-chloro-7-iodo-8-hydroxyquinoline], which “% of total Aβ extracted” value [11] is on record?
The value was 1.85% and 4.5% and 3.4%.

What about the “% of total Aβ extracted, + PBS” value [11] of the same compound?
The value was 0.11% and 2.7% and 1.1%.

And the “Aβ recovered in the soluble phase compared to PBS alone” value [11]?
Its value is “doubling the recovery of Aβ; also recorded: more than twice”.

And the “increase in solubilization of Aβ relative to PBS alone” value [11]?
The value was 2.5 fold.

And the “Cu^2+-induced Aβ precipitate resolubilized” value [12]?
The value was 85%.

What about the “Zn^2+-induced Aβ precipitate resolubilized” value [12] of the same compound?
The value was 50%.

What about the “pH 5.5-induced Aβ precipitate resolubilized” value [12] of the same compound?
Its value is 10%.

And the peak plasma levels ([13]; 100 mg, three or four times a day)?
Its peak plasma levels is “about 0.1 μM”.

What about the expected plasma level ([13]; humans, within 30 minutes of ingesting 10 mg/kg body weight) of the same compound?
The expected plasma level was 0.5 µM.

And the “proportion dissolved in n-decane” value ([14]; 5.3 grams in 200 milliliter of n-decane)?
The value was 2%.

What about the “concentration in PBS after partition from n-decane” value ([14]; PBS, pH 7.4, based on two assumptions) of the same compound?
The value was 0.8 µM.

What about the plasma levels [15] of the same compound?
The plasma levels was 5 µM.

What about the plasma levels [16] of the same compound?
The plasma levels was 10 to 30 µM.

And the plasma levels [17]?
The plasma levels was 20 to 70 µM.

What about the neurological side effect [18] of the same compound?
Its neurological side effect is “subacute myclo-optic neuritis”.

What about the “removal of a bolus dose from the brain” value ([19]; in vivo) of the same compound?
Its value is “almost completely removed from the brain within three hours”.

And the safety ([19]; many mammalian species, including rat and mouse)?
Its safety is “appears to be safe”.

And the blood levels ([19]; within one hour of ingestion, rats and mice)?
The blood levels was 1 to 10 µM.

What about the excretion half life ([20]; in vivo) of the same compound?
The excretion half life was 1 to 3 h.

And the “time to peak plasma levels” value ([20]; oral ingestion)?
The value was no more than 30 min.

And the partitioning coefficient [21]?
The partitioning coefficient was 1/1750.

And the “brain / blood-brain barrier penetration” value [8]?
The value was “freely permeable into the brain”.

What about the “brain / blood-brain barrier penetration” value ([8]; listed as Clioquinol) of the same compound?
The value was “crosses the blood brain barrier”.
